Laboratory results published in ChEMBL document CHEMBL1201862, “PubChem BioAssay data set” (2004).
Calls of active or inactive are those of the source.

Columns and labels:
[1] = molecular target: T1, Dual specificity protein phosphatase 3 (Homo sapiens, UniProt P51452); assay: VHR1 phosphatase inhibitors, primary screen, biochemical, absorbance, uHTS (AID 1654)
[2] = molecular target: Eukaryotic translation initiation factor 4E (Mus musculus, UniProt P63073); assay: eIF4E–eIF4G protein interaction inhibitors, dose response, biochemical, TR-FRET (AID 855); assay type: functional;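 also: potency for disrupting eIF4E binding to eIF4GI seen as loss of FRET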
Eukaryotic translation initiation factor 4E, sequence (P63073 whole entry): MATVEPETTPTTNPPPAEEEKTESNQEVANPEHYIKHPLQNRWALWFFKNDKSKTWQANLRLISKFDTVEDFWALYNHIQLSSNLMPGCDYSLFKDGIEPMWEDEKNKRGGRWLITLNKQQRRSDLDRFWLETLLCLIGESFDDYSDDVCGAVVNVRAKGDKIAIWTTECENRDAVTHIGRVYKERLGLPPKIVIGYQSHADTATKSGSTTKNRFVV

[3] = molecular target: T2, Calpain-2 catalytic subunit (Sus scrofa, UniProt P43367); assay: pig calpain II inhibitor potency, dose response, biochemical, fluorogenic peptide substrate (AID 1420); assay type: functional
T2 sequence (P43367 whole entry): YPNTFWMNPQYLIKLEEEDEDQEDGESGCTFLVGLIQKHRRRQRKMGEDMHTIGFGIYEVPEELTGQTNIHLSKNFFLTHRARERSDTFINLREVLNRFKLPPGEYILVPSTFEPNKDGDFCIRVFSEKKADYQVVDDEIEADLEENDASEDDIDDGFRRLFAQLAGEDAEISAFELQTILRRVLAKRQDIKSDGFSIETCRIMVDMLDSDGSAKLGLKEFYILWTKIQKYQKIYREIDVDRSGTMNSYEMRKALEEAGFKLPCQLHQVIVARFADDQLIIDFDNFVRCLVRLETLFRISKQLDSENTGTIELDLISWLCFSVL

[4] = molecular target: T1, Dual specificity protein phosphatase 3; assay: VHR1 phosphatase inhibitors, biochemical (AID 1878)
[5] = HEp-2 cell cytotoxicity, dose response, cytotoxicity control for RSV inhibitor project, HTS (AID 2410); assay type: functional; settings: human respiratory syncytial virus
[6] = molecular target: Voltage-gated N-type calcium channel alpha-1B subunit/Amyloid beta A4 precursor protein-binding family A member 1 (Homo sapiens, UniProt Q00975+Q02410); assay type: protein assay
Voltage-gated N-type calcium channel alpha-1B subunit/Amyloid beta A4 precursor protein-binding family A member 1, sequence (Q00975 whole entry): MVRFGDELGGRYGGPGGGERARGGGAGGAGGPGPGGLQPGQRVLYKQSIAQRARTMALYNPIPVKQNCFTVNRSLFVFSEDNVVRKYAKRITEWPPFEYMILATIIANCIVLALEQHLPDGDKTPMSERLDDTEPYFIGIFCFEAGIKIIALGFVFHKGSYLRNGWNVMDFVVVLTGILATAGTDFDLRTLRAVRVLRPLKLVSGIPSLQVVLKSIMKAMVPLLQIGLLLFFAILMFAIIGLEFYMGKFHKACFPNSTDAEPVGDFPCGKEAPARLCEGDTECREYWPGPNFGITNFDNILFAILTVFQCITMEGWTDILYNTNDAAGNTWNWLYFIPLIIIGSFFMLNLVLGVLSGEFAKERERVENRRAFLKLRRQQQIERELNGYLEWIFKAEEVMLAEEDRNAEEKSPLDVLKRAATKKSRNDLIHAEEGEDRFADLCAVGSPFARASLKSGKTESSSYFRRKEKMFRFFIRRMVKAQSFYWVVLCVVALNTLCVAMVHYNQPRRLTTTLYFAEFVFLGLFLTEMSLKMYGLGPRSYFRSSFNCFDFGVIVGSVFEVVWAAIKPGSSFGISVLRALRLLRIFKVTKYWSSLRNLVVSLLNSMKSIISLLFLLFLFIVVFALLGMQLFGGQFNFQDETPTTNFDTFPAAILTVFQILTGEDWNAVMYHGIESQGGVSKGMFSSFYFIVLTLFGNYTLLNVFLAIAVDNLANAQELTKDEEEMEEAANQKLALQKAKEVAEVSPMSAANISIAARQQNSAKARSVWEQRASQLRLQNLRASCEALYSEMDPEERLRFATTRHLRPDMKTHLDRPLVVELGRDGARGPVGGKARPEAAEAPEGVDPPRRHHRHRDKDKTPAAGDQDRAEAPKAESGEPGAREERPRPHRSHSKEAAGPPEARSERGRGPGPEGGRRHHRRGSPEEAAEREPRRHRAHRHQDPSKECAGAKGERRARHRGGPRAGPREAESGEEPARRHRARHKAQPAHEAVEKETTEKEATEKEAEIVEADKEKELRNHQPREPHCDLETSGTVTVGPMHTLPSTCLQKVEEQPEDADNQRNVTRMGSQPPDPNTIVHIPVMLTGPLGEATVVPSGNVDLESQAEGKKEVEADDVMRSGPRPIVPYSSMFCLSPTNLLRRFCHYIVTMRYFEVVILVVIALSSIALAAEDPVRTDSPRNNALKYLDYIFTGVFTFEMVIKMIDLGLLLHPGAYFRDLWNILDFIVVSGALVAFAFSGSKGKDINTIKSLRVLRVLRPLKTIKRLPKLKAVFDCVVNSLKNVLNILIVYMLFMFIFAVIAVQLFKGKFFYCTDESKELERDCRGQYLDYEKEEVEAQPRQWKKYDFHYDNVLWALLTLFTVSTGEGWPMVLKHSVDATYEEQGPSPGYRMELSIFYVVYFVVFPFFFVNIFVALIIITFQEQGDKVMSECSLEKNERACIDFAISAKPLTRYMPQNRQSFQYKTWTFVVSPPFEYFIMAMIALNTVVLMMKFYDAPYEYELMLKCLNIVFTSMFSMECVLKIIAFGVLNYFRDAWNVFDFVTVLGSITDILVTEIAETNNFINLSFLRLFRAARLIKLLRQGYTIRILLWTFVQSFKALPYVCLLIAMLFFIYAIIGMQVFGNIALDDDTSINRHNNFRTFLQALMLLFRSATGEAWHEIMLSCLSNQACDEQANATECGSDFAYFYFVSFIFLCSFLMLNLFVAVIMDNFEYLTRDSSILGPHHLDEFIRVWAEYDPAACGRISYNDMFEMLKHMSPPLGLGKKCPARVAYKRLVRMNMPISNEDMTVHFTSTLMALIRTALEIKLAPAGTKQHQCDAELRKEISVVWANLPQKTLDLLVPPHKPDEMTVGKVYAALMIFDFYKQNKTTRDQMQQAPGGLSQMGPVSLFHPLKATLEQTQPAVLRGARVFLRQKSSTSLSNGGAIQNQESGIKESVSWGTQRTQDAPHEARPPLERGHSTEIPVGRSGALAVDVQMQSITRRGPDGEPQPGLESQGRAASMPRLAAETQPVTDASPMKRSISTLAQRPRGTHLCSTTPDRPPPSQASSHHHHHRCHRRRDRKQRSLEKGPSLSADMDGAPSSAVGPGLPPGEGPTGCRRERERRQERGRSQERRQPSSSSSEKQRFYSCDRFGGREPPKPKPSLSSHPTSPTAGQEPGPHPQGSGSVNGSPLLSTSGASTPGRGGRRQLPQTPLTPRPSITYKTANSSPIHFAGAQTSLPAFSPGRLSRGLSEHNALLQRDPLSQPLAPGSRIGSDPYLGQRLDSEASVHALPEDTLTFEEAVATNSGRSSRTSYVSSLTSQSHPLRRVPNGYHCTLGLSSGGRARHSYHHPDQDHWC
Voltage-gated N-type calcium channel alpha-1B subunit/Amyloid beta A4 precursor protein-binding family A member 1, sequence (Q02410 whole entry): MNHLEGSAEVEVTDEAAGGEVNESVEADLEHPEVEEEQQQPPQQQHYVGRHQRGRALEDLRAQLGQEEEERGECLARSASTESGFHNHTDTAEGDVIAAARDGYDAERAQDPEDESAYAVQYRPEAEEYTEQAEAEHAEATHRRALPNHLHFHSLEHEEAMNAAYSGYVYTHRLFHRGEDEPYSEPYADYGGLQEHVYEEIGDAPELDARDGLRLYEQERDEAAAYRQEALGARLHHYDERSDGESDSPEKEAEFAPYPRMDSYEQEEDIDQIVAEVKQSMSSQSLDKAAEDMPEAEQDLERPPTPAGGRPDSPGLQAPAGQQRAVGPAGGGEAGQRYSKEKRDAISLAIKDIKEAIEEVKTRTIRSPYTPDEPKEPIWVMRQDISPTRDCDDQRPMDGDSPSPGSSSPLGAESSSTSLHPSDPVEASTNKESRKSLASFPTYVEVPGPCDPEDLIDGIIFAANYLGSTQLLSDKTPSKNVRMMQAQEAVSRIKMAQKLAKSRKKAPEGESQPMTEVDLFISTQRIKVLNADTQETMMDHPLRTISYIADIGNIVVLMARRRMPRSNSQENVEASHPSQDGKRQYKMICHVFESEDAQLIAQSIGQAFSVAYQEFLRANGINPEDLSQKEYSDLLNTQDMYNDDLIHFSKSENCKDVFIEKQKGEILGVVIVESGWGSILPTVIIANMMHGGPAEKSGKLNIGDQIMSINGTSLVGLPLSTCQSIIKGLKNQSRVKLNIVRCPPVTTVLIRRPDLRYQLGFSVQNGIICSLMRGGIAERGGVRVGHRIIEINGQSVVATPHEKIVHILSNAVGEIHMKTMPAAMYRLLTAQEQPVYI

[7] = molecular target: T3, Dual specificity protein phosphatase 6 (Rattus norvegicus, UniProt Q64346); assay: MKP-3 phosphatase inhibitors, primary screen, biochemical, rat enzyme, in vitro (AID 425)
T3 sequence (Q64346 whole entry): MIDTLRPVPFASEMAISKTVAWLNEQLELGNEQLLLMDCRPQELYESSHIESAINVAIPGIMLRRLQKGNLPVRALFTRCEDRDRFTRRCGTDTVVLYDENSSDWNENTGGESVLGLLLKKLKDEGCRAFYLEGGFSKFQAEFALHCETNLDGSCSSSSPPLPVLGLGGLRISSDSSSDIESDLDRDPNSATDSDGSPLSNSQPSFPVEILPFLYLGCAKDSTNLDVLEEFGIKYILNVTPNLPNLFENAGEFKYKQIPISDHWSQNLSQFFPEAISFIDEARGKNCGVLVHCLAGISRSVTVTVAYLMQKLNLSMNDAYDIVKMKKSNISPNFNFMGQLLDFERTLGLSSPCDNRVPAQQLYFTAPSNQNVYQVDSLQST

[8] = growth suppression of PTEN-null colon cells, dose response, cell-based, HCT116 PTEN knockout (AID 1047); assay type: functional;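 also: HCT116 colon tumor cells with PTEN knocked out; cells exposed to compound for 60 hours before readout; potency for loss of cell viability measured by luminescence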
[9] = molecular target: T4, Short transient receptor potential channel 4 (Mus musculus, UniProt Q9QUQ5); assay: mouse TRPC4 channel inhibitors, dose response, cell-based, HEK293 TRPC4/mu-opioid, Fluo-4 calcium (AID 434942); assay type: functional;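 also: potency of inhibitors blocking the TRPC4 calcium response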
T4 sequence (Q9QUQ5 whole entry): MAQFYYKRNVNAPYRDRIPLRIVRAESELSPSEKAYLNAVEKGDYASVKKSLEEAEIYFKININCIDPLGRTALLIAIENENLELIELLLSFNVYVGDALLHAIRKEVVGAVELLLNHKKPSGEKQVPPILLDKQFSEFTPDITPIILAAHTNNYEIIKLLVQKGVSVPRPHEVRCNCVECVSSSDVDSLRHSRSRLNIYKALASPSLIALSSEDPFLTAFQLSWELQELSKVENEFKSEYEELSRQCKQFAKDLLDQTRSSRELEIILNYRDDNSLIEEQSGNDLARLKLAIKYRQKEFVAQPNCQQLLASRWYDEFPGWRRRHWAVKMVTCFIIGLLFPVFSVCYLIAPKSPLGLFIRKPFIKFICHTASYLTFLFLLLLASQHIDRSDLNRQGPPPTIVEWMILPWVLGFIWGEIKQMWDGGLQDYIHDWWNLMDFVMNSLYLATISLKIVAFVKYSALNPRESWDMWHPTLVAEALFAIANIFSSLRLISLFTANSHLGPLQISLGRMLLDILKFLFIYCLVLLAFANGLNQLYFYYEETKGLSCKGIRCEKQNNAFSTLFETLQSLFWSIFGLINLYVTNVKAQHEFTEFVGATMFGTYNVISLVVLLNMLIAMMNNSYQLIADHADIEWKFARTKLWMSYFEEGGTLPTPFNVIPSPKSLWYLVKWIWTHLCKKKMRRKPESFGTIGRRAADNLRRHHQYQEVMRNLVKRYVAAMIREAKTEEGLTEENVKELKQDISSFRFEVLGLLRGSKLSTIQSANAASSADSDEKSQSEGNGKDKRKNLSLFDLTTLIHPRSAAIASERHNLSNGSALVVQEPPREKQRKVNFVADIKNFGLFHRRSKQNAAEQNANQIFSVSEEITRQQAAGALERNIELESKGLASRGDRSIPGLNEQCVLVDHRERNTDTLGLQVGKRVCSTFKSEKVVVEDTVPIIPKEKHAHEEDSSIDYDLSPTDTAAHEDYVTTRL

[10] = molecular target: T5, Streptokinase A (Streptococcus pyogenes serotype M1, UniProt P10520); assay: S. pyogenes streptokinase expression inhibitors, potency, dose response, plasminogen activation absorbance, OD405 (AID 1914); assay type: functional, Streptococcus pyogenes M1 GAS;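 also: secreted streptokinase activity via plasminogen activation per viability signal from cell pellet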
T5 sequence (P10520 whole entry): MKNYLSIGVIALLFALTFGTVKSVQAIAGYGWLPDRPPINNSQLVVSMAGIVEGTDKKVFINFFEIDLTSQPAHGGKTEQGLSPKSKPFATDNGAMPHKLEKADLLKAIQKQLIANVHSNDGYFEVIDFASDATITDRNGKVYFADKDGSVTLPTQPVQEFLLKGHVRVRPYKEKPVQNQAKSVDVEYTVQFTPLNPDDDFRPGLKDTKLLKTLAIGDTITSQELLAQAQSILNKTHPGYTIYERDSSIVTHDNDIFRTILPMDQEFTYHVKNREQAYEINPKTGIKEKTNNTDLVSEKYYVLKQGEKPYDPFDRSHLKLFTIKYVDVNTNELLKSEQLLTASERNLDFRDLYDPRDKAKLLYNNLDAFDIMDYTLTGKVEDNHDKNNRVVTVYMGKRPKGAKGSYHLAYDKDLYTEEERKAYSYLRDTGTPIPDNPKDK

[11] = inhibitors of firefly luciferase expression or activity, dose response, H4 neuroglioma cells, luminescence (AID 1990); assay type: functional, cell-based
[12] = cells; assay type: functional, cell-based
[13] = test system: Streptococcus; assay: Group A Streptococcus viability loss, dose response, counter-screen for streptokinase expression inhibitor project, luminescence, BacTiterGlo (AID 1915); assay type: functional, organism-based;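 also: potency for reduction of bacterial viability or growth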
[14] = HepG2 cell cytotoxicity, dose response, cytotoxicity control for Shn3 inhibitor project, CellTiter-Glo, cherry-picked (AID 624134); assay type: functional, cell-based
[15] = molecular target: T6, Kappa-type opioid receptor (Homo sapiens, UniProt P41145); assay type: functional
T6 sequence (P41145 whole entry): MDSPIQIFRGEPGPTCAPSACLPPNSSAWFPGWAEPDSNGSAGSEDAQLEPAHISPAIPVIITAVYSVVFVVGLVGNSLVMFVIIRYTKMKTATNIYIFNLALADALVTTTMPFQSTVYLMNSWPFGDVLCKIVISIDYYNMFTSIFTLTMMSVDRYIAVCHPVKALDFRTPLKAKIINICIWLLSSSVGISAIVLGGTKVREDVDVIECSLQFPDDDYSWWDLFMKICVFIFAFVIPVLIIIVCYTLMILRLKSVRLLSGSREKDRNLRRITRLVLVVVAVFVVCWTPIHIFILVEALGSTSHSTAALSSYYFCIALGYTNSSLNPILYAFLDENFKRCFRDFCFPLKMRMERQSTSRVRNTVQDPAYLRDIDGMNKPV

[16] = microbe, parasite or virus in culture; assay type: functional; settings: Mycobacterium tuberculosis
[17] = test system: Streptococcus sp. 'group A'; assay: growth inhibition of control SK(-) GAS strain, dose response, counter-screen for streptokinase expression inhibitor project, luminescence, kanamycin, BacTiterGlo, confirmation (AID 1900); assay type: functional, organism-based
[18] = test system: INS1; assay: beta cell apoptosis inhibitors, cytokine rescue, dose response, luminescence, retest (AID 449756); assay type: functional, cell-based; settings: Rattus norvegicus;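 also: cell death triggered by IL-1 beta plus TNF-alpha plus IFN-gamma mixture; protective hits raise ATP signal compared with cytokine alone wells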
[19] = cytotoxicity toward NIH3T3 fibroblasts, dose response, counter-screen, cell-based, ATP luminescence, mouse fibroblasts (AID 2010); assay type: functional;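 also: cells exposed to compound for about 90 hours before reading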
[20] = molecular target: T7, Delta-type opioid receptor (Homo sapiens, UniProt P41143); assay: HTS Image-Based Screen for Agonists of the DOR Receptor. [Related pubchem assays (depositor defined):AID1777, AID1786, AID2133]; assay type: functional
T7 sequence (P41143 whole entry): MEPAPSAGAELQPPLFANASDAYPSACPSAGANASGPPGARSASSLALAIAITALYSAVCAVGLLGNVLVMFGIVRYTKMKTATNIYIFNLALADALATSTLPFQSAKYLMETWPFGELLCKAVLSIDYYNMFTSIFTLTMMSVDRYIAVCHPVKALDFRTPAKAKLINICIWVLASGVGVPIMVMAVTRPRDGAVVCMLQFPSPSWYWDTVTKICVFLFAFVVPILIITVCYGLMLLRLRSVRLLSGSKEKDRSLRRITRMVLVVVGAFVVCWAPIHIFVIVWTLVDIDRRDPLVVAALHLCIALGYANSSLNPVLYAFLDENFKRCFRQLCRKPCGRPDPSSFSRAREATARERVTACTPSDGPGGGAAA

[21] = molecular target: T6, Kappa-type opioid receptor; assay type: functional; remark: listed apart in the source
[22] = control 3'UTR Renilla luciferase suppression, dose response, counter-screen for Shn3 inhibitor project, cell-based, Clone20-Shn3RL, cherry-picked (AID 624133); assay type: functional
[23] = Shn3 3'UTR reporter inhibitors, dose response, cell-based, Clone20 osteoblasts, firefly luciferase, cherry-picked (AID 624132); assay type: functional;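 also: firefly luciferase luminescence from reporter carrying the Shn3 3'UTR in osteoblasts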
[24] = insulin promoter down-regulators in MIN6 cells, imaging, high-content screening, mouse beta cells (AID 1628); assay type: functional
[25] = cells; assay type: functional, cell-based; remark: listed apart in the source
[26] = molecular target: Beta-galactosidase (Escherichia coli, UniProt Q8VNN2); assay type: functional
[27] = molecular target: T7, Delta-type opioid receptor; assay: HTS Image-Based Screen for Antagonists of the DOR Receptor. [Related pubchem assays (depositor defined):AID1777, AID1785, AID1786, AID2133]; assay type: functional
[28] = molecular target: Mu-type opioid receptor (Homo sapiens, UniProt P35372); assay: HTS Image-Based Screen for Agonists of the MOR Receptor. [Related pubchem assays (depositor defined):AID1777, AID1785, AID1786, AID2133]; assay type: functional;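 also: imaging of beta-arrestin GFP recruitment into spots after receptor activation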
[29] = molecular target: Nonstructural protein 1 (Influenza A virus, UniProt Q194T2); assay type: functional, Influenza A virus (A/California/07/2009(H1N1))
Nonstructural protein 1, sequence (Q194T2 whole entry): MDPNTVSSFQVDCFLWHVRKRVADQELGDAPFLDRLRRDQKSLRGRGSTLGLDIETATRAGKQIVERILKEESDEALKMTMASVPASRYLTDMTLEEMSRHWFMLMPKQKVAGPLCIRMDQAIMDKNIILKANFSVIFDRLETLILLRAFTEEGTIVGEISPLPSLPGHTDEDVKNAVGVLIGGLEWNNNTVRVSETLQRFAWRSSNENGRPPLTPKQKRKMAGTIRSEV

[30] = inhibitors of SNCA 5'UTR-driven reporter translation, confirmation, H4 neuroglioma cells, luminescence (AID 1988); assay type: functional, cell-based
[31] = cytotoxicity in MIN6 insulinoma cells, dose response, cytotoxicity control, cell-based, mouse insulinoma (AID 2122); assay type: functional;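 also: confirmatory high-throughput counterscreen run to flag cytotoxic compounds; mouse MIN-6 beta cells carrying an insulin promoter eGFP reporter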
[32] = inhibitors of intracellular T. cruzi replication, confirmation, NIH3T3 host cells, beta-gal luminescence (AID 2044); assay type: functional, cell-based;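 also: intracellular parasites grown in NIH/3T3 mouse fibroblasts as host cells; luminescent beta-galactosidase reporter signal from transgenic T. cruzi replicating inside host cells; inhibitors lower the luminescence signal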
[33] = growth suppression of beta-catenin-knockout colon cells, dose response, cell-based, HCT116, human colon tumor (AID 1045); assay type: functional;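 also: HCT116 colon tumor cells with beta catenin knocked out; cells exposed to compound for 60 hours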
[34] = molecular target: T8, Tyrosine-protein phosphatase non-receptor type 22 (Homo sapiens, UniProt Q9Y2R2); assay: SAR LYP1 Fluorescent Assay using OMFP substrate for In Vitro dose response studies - Set 3. [Related pubchem assays (depositor defined):AID1779, AID1784, AID2140, AID2686]; assay type: functional
T8 sequence (Q9Y2R2 whole entry): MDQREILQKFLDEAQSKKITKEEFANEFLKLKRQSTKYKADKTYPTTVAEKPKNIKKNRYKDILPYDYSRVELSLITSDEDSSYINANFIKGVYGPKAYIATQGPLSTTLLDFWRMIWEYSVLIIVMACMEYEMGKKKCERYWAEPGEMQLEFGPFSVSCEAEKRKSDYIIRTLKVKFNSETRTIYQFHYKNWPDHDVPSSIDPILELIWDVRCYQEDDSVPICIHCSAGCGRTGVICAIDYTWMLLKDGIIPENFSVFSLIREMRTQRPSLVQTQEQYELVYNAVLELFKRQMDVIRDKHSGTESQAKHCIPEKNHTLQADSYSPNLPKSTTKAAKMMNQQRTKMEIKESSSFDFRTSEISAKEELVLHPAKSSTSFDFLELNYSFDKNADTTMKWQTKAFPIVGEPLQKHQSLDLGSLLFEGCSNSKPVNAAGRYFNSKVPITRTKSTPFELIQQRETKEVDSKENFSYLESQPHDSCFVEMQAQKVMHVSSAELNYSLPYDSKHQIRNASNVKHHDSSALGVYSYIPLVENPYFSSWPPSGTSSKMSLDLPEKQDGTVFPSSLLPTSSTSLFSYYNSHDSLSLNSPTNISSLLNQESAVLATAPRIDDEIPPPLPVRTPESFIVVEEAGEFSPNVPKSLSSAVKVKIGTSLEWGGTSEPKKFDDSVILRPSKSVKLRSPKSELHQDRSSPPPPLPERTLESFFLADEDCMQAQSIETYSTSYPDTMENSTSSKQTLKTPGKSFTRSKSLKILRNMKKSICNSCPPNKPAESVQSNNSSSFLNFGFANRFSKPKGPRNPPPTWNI

[35] = molecular target: Tyrosine-protein phosphatase non-receptor type 12 (Homo sapiens, UniProt Q05209); assay: SAR Selectivity Analysis of small molecule inhibitors of PEST using pCAP in a fluorescence assay. [Related pubchem assays (depositor defined):AID1779, AID1784, AID2135]; assay type: functional
[36] = molecular target: G-protein coupled receptor 55 (Homo sapiens, UniProt Q9Y2T6); assay: GPR55 antagonists, SAR follow-up, counter-screen for GPR35 antagonist project, imaging, image-based (AID 2397); assay type: functional
G-protein coupled receptor 55, sequence (Q9Y2T6 whole entry): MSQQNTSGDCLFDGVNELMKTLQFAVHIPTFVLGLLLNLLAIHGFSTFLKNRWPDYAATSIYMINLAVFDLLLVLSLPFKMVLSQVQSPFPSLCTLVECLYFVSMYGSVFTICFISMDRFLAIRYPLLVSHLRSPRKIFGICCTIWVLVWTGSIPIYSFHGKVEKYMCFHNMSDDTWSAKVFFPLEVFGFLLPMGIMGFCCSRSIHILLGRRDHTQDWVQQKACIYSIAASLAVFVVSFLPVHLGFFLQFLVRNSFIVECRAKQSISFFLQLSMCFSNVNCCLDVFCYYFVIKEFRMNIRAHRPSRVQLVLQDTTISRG

[37] = molecular target: T8, Tyrosine-protein phosphatase non-receptor type 22; assay: LYP (PTPN22) phosphatase inhibitor potency, SAR follow-up, biochemical, pCAP fluorogenic substrate, fluorescence, set 3 (AID 449727); assay type: functional

T1 sequence (P51452 whole entry): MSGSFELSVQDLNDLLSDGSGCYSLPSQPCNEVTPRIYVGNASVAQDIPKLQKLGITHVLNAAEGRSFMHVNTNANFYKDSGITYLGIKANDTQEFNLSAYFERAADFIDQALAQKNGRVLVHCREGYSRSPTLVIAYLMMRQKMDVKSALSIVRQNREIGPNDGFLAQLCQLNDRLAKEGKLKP

O=C(Nc1ccc(Cl)c(Cl)c1)Nc1nnc(-c2ccncc2)s1
active: IC50 [1] 5.3 µM | IC50 [3] 3.64 µM | IC50 [4] 1.56 µM | CC50 [5] 5.14 µM | IC50 [6] 21.1 µM | IC50 [7] 16.2 µM
inactive: IC50 [2] > 64 µM

Oc1ccc(CN2CCc3ccccc3C2)c2cccnc12
inactive: EC50 [20] > 32 µM | EC50 [26] > 31.5 µM | IC50 [27] > 32 µM | EC50 [28] > 32 µM
> 350 µM (not active): EC50 [12]
> 150 µM (not active): EC50 [10]
active: EC50 [8] 1.82 µM | EC50 [9] 7.5 µM | EC50 [11] < 0.1 µM | EC50 [13] 13.8 µM | AC50 [14] 1.69 µM | IC50 [15] 14 µM | CC50 [16] 1.62 µM | EC50 [17] 6.14 µM | AC50 [18] 1.83 µM | EC50 [19] 5.88 µM | AC50 [22] 0.971 µM | AC50 [23] 0.673 µM | IC50 [24] 1.96 µM | EC50 [25] 4.63 µM | IC50 [29] 5.76 µM | EC50 [30] 0.528 µM | IC50 [31] 1.69 µM | EC50 [32] 0.529 µM | EC50 [33] 1.52 µM
> 32 µM: IC50 [21]

CCOC(=O)c1ccc(NC(=O)CCCN2C(=O)/C(=C/c3ccccc3)SC2=S)cc1
active: IC50 [35] 94.2 µM
inactive: IC50 [34] > 100 µM | IC50 [36] > 32 µM | IC50 [37] > 100 µM
